Laboratory results taken from US20240182453A1, “NOVEL SUBSTITUTED PYRAZINE-CARBOXAMIDE DERIVATIVES” (Boehringer Ingelheim International GmbH, priority 2022, published 2024).
pIC50: −log10 of the molar value.

molecular target: human metabotropic Glutamate 4 receptor (mGluR4) (Homo sapiens (Human), UniProt Q14833); assay: Assay A: in vitro testing of mGluR4 potency (glutamate-induced cAMP lowering, HTRF cAMP); assay type: cell-based; details: HEK293 cells overexpressing human mGluR4; 10 uM L-glutamic acid, 1 uM forskolin; compounds of the present invention
Method in brief: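 HEK293 cells overexpressing human mGluR4 treated 30 min at room temperature with compound plus 10 uM L-glutamate, 1 uM forskolin, 0.5 mM IBMX, 0.1% BSA, 1% DMSO. cAMP read by HTRF (665/615 nm ratio), normalized to glutamate (100%) and no-glutamate (0%) controls as percent of control.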

Sequence of human metabotropic Glutamate 4 receptor (mGluR4) (Q14833 33-912): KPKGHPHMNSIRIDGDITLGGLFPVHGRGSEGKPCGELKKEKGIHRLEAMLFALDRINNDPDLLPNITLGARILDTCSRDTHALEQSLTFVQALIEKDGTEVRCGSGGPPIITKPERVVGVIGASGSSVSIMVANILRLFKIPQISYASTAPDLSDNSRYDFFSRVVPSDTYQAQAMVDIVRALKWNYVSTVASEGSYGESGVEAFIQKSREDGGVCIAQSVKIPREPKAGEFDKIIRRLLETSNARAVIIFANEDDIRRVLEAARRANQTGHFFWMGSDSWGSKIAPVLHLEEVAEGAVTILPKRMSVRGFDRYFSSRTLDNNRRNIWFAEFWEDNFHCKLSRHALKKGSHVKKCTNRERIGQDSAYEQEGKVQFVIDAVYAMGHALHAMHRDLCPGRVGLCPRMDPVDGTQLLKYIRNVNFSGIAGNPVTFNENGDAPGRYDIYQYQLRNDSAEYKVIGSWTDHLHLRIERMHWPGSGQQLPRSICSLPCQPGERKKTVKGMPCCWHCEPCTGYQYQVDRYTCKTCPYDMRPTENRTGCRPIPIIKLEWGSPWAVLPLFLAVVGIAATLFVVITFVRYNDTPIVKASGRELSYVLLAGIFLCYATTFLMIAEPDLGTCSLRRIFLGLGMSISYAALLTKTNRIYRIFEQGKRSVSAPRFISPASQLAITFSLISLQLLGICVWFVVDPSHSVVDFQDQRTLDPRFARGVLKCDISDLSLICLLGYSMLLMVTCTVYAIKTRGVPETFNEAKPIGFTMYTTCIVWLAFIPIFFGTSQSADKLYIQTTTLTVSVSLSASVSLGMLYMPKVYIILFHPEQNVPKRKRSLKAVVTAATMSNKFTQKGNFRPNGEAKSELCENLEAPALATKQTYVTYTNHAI

Going from `CO[C@H](C)[C@H](NC(=O)c1cnc(C)cn1)c1nc2cc(OC(F)(F)F)ccc2n1C` [Example 43, N-[(1R,2R)-2-methoxy-1-[1-methyl-5-(trifluoromethoxy)-1H-1,3-benzodiazol-2-yl]propyl]-5-methylpyrazine-2-carboxamide] to `CO[C@H](C)[C@H](NC(=O)c1cnc(C)cn1)c1nc2cc(C(F)(F)F)ccc2n1C` [Example 22, N-[(1R,2R)-2-methoxy-1-[1-methyl-5-(trifluoromethyl)-1H-1,3-benzodiazol-2-yl]propyl]-5-methylpyrazine-2-carboxamide], the pIC50 rises from 8.00 to 8.22 (0.22 log units).

First: Cc1cnc(C(=O)N[C@H](c2nc3cc(Cl)ccc3n2C2CC2)C2CC2)cn1 [Example 101, N-[(S)-(5-chloro-1-cyclopropyl-1H-1,3-benzodiazol-2-yl)(cyclopropyl)methyl]-5-methylpyrazine-2-carboxamide]
Second: Cc1cnc(C(=O)N[C@H](c2nc3cc(F)ccc3n2C2CC2)C2CC2)cn1 [Example 73, N-[(S)-cyclopropyl (1-cyclopropyl-5-fluoro-1H-1,3-benzodiazol-2-yl)methyl]-5-methylpyrazine-2-carboxamide]
The pIC50 of the first is 0.31 log units higher: 8.05 for the first, 7.74 for the second. The first is the more potent here.

Going from `Cc1cnc(C(=O)N[C@H](c2nc3c(Cl)c(Br)ccc3n2C)C2CC2)cn1` [Example 42, N-[(S)-(5-bromo-4-chloro-1-methyl-1H-1,3-benzodiazol-2-yl)(cyclopropyl)methyl]-5-methylpyrazine-2-carboxamide] to `COc1c(Cl)ccc2c1nc([C@@H](NC(=O)c1cnc(C)cn1)C1CC1)n2C` [Example 112, N-[(S)-(5-chloro-4-methoxy-1-methyl-1H-1,3-benzodiazol-2-yl)(cyclopropyl)methyl]-5-methylpyrazine-2-carboxamide], the pIC50 falls from 8.70 to 7.82 (0.88 log units).

Compared with `CO[C@H](C)[C@H](NC(=O)c1cnc(C)cn1)c1nc2cc(OC(F)(F)F)ccc2n1CCOC1CC1` [Example 119, N-[(1R,2R)-1-[1-(2-cyclopropoxyethyl)-5-(trifluoromethoxy)-1H-1,3-benzodiazol-2-yl]-2-methoxypropyl]-5-methylpyrazine-2-carboxamide], `COCCn1c([C@@H](NC(=O)c2cnc(C)cn2)C2CC2)nc2cc(OC(F)(F)F)ccc21` [Example 12, N-[(S)-cyclopropyl[1-(2-methoxyethyl)-5-(trifluoromethoxy)-1H-1,3-benzodiazol-2-yl]methyl]-5-methylpyrazine-2-carboxamide] is 0.30 log units lower in pIC50: 9.00 for the first, 8.70 for the second. The first is the more potent here.

Compared with `CO[C@H](C)[C@H](NC(=O)c1cnc(C)cn1)c1nc2c(C)c(Br)ccc2n1C` [Example 88, N-[(1R,2R)-1-(5-bromo-1,4-dimethyl-1H-1,3-benzodiazol-2-yl)-2-methoxypropyl]-5-methylpyrazine-2-carboxamide], `CO[C@H](C)[C@H](NC(=O)c1cnc(C)cn1)c1nc2cc(F)c(F)cc2n1C` [Example 85, N-[(1R,2R)-1-(5,6-difluoro-1-methyl-1H-1,3-benzodiazol-2-yl)-2-methoxypropyl]-5-methylpyrazine-2-carboxamide] is 1.20 log units lower in pIC50: 8.52 for the first, 7.32 for the second.

`Cc1cnc(C(=O)NC(c2nc3ccc(C(F)(F)F)cc3n2CC(F)F)C2CCOC2)cn1` (single isomer, unassigned) [Example 146, N-{[1-(2,2-difluoroethyl)-6-(trifluoromethyl)-1H-1,3-benzodiazol-2-yl](oxolan-3-yl)methyl}-5-methylpyrazine-2-carboxamid] and `COCCn1c(C(NC(=O)c2cnc(C)cn2)C2CCOC2)nc2cc(C(F)(F)F)ccc21` (single isomer, unassigned) [Example 87-1, N-{[1-(2-methoxyethyl)-5-(trifluoromethyl)-1H-1,3-benzodiazol-2-yl](oxolan-3-yl)methyl}-5-methylpyrazine-2-carboxamide] are within 0.2 log units of each other in pIC50: 7.80 for the first, 7.68 for the second.

`COCCn1c(C(NC(=O)c2cnc(C)cn2)C2CCCO2)nc2cc(C(F)(F)F)ccc21` (single isomer, unassigned) [Example 71-2, N-{[1-(2-methoxyethyl)-5-(trifluoromethyl)-1H-1,3-benzodiazol-2-yl](oxolan-2-yl)methyl}-5-methylpyrazine-2-carboxamide] and `COCCn1c([C@@H](NC(=O)c2cnc(C)cn2)[C@@H]2CCCO2)nc2cc(OC(F)(F)F)ccc21` [Example 58, N-[(R)-[1-(2-methoxyethyl)-5-(trifluoromethoxy)-1H-1,3-benzodiazol-2-yl][(2S)-oxolan-2-yl]methyl]-5-methylpyrazine-2-carboxamide] are within 0.2 log units of each other in pIC50: 8.52 for the first, 8.40 for the second.

`Cc1cnc(C(=O)NC(c2nc3cc(OC(F)(F)F)ccc3n2C)C2CCCOC2)cn1` (single isomer, unassigned) [Example 78-2, 5-methyl-N-{[1-methyl-5-(trifluoromethoxy)-1H-1,3-benzodiazol-2-yl](oxan-3-yl)methyl]pyrazine-2-carboxamide] and `CCn1c(C(NC(=O)c2cnc(C)cn2)C2CCOC2)nc2cc(OC(F)(F)F)ccc21` (single isomer, unassigned) [Example 70-2, N-{[1-ethyl-5-(trifluoromethoxy)-1H-1,3-benzodiazol-2-yl](oxolan-3-yl)methyl}-5-methylpyrazine-2-carboxamide] are within 0.2 log units of each other in pIC50: 7.60 for the first, 7.70 for the second.

`O=C(N[C@@H](CC1CC1)c1nc2cc(F)ccc2n1C1CC1)c1cnc(C(F)F)cn1` [Example 114, N-[(1S)-2-cyclopropyl-1-(1-cyclopropyl-5-fluoro-1H-1,3-benzodiazol-2-yl)ethyl]-5-(difluoromethyl)pyrazine-2-carboxamide] and `Cc1cnc(C(=O)N[C@@H](CC2CC2)c2nc3cc(Cl)ccc3n2C2CC2)cn1` [Example 92, N-[(1S)-1-(5-chloro-1-cyclopropyl-1H-1,3-benzodiazol-2-yl)-2-cyclopropylethyl]-5-methylpyrazine-2-carboxamide] are within 0.2 log units of each other in pIC50: 7.82 for the first, 7.74 for the second.

First: COCCn1c(C(NC(=O)c2cnc(C)cn2)C2CCCO2)nc2cc(C(F)(F)F)ccc21 (single isomer, unassigned) [Example 19-1, N-{[1-(2-methoxyethyl)-5-(trifluoromethyl)-1H-1,3-benzodiazol-2-yl](oxolan-2-yl)methyl}-5-methylpyrazine-2-carboxamide]
Second: COCCn1c([C@@H](NC(=O)c2cnc(C)cn2)C2CC2)nc2cc(Cl)ccc21 [Example 8, N-[(S)-[5-chloro-1-(2-methoxyethyl)-1H-1,3-benzodiazol-2-yl](cyclopropyl)methyl]-5-methylpyrazine-2-carboxamide]
The pIC50 of the first is 0.63 log units lower: 7.89 for the first, 8.52 for the second.

First: Cc1cnc(C(=O)N[C@H](c2nc3cc(Cl)ccc3n2CC(F)F)C2CC2)cn1 [Example 158, N-[(S)-[5-chloro-1-(2,2-difluoroethyl)-1H-1,3-benzodiazol-2-yl](cyclopropyl)methyl]-5-methylpyrazine-2-carboxamide]
Second: Cc1cnc(C(=O)N[C@H](c2nc3cc(Cl)ccc3n2C)C2CC2)cn1 [Example 47, N-[(S)-(5-chloro-1-methyl-1H-1,3-benzodiazol-2-yl)(cyclopropyl)methyl]-5-methylpyrazine-2-carboxamide]
The pIC50 of the first is 0.47 log units higher: 8.52 for the first, 8.05 for the second. The first is the more potent here.

`Cc1cnc(C(=O)N[C@H](c2nc3c(C)c(C#N)ccc3n2CC(F)F)C2CC2)cn1` [Example 44, N-[(S)-[5-cyano-1-(2,2-difluoroethyl)-4-methyl-1H-1,3-benzodiazol-2-yl](cyclopropyl)methyl]-5-methylpyrazine-2-carboxamide] and `Cc1cnc(C(=O)N[C@H](c2nc3c(F)c(C)ccc3n2CC(F)F)C2CC2)cn1` [Example 9, N-[(S)-cyclopropyl[1-(2,2-difluoroethyl)-4-fluoro-5-methyl-1H-1,3-benzodiazol-2-yl]methyl]-5-methylpyrazine-2-carboxamide] are within 0.2 log units of each other in pIC50: 8.30 for the first, 8.40 for the second.

`CCn1c(C(NC(=O)c2cnc(C)cn2)C2CCOC2)nc2cc(Cl)ccc21` (single isomer, unassigned) [Example 162, N-[(5-chloro-1-ethyl-1H-1,3-benzodiazol-2-yl)(oxolan-3-yl)methyl]-5-methylpyrazine-2-carboxamide] and `Cc1cnc(C(=O)N[C@H](c2nc3cc(F)ccc3n2C(C)C)[C@H]2CCOC2)cn1` [Example 84, N-[(S)-[5-fluoro-1-(propan-2-yl)-1H-1,3-benzodiazol-2-yl][(3R)-oxolan-3-yl]methyl]-5-methylpyrazine-2-carboxamide] are within 0.2 log units of each other in pIC50: 7.52 for the first, 7.59 for the second.

Compared with `COCCn1c([C@@H](NC(=O)c2cnc(C)cn2)C2CC2)nc2c(C)c(Br)ccc21` [Example 54, N-[(S)-[5-bromo-1-(2-methoxyethyl)-4-methyl-1H-1,3-benzodiazol-2-yl](cyclopropyl)methyl]-5-methylpyrazine-2-carboxamide], `COCCn1c([C@@H](NC(=O)c2cnc(C(F)F)cn2)[C@H]2CCOC2)nc2cc(OC(F)(F)F)ccc21` [Example 77, 5-(difluoromethyl)-N-[(S)-[1-(2-methoxyethyl)-5-(trifluoromethoxy)-1H-1,3-benzodiazol-2-yl][(3R)-oxolan-3-yl]methyl]pyrazine-2-carboxamide] is 1.08 log units lower in pIC50: 9.00 for the first, 7.92 for the second.

Compared with `O=C(N[C@@H](CC1CC1)c1nc2cc(F)c(F)cc2n1CCOC(F)F)c1cnc(C(F)F)cn1` [Example 111, N-[(1S)-2-cyclopropyl-1-{1-[2(difluoromethoxy)ethyl]-5,6-difluoro-1H-1,3-benzodiazol-2-yl}ethyl]-5-(difluoromethyl)pyrazine-2-carboxamide], `CC(C)(O)[C@H](NC(=O)c1cnc(C(F)F)cn1)c1nc2cc(F)ccc2n1CC(F)F` [Example 83, N-[(1R)-1-[1-(2,2-difluoroethyl)-5-fluoro-1H-1,3-benzodiazol-2-yl]-2-hydroxy-2-methylpropyl]-5-(difluoromethyl)pyrazine-2-carboxamide] is 0.58 log units lower in pIC50: 8.00 for the first, 7.42 for the second.

Compound `COC[C@@H](C)n1c([C@@H](NC(=O)c2cnc(C)cn2)[C@@H](C)OC)nc2cc(OC(F)(F)F)ccc21` [Example 129, N-[(1R,2R)-2-methoxy-1-{1-[(2R)-1-methoxypropan-2-yl]-5-(trifluoromethoxy)-1H-1,3-benzodiazol-2-yl}propyl]-5-methylpyrazine-2-carboxamide] has a pIC50 of 8.05.
